According to BindingDB's records for patent US10301272 (Phenex Pharmaceuticals, 2019):

Each compound was assayed against T1, Isoform 2 of Nuclear receptor ROR-gamma (RORgT) (Homo sapiens, UniProt P51449) (assay: RORgamma Gal4 Reporter Gene Assay (FRET)).
T1 sequence (P51449 whole entry): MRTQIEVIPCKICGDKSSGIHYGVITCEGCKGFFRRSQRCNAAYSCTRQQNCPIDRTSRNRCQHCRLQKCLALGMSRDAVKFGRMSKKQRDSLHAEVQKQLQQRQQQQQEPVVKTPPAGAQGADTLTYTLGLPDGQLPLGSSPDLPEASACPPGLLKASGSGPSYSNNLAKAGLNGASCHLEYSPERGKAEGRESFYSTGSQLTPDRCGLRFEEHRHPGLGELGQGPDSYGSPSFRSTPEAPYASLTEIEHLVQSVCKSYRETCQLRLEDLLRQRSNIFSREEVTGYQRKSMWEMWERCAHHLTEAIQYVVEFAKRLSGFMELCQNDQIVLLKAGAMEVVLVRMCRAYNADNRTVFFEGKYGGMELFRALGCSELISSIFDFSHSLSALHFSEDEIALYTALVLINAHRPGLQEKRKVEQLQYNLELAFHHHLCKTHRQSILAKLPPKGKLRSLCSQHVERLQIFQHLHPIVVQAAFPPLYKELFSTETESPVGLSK
Procedure: Determination of a ligand mediated Gal4 promoter driven transactivation to quantify ligand binding to RORγ was performed as follows: DNA encoding three different RORγ protein fragments was cloned into vector pCMV-BD (Stratagene). Expression was under control of a CMV promoter and as fusion to the DNA-binding domain of the yeast protein GAL4. Other vectors used were pFR-Luc (Stratagene) as regulated reporter plasmid. pFR-Luc contains a synthetic promoter with five tandem repeats of the yeast GAL4 binding sites that control expression of the Photinus pyralis (American firefly) luciferase gene. In order to improve experimental accuracy the plasmid pRL-CMV was cotransfected. pRL-CMV contains the constitutive CMV promoter, controlling the expression of the Renilla reniformis luciferase. […] The medium is supplemented with 10% fetal bovine serum, 0.1 mM nonessential amino acids, 1 mM sodium pyruvate, 1% Glutamax and 100 units Penicilin/[…] per mL at 37° C. in 5% CO2.For the assay, […] cells were plated per well in 96 well plates in 100 μL per well, incubated over night at 37° C. in 5% CO2. […] About 4 h after addition of the transfection solution, fresh Minimal Essential Medium (MEM, same composition as used for plating cells, but without serum) was added.

Structure (SMILES)	IC50 [µM]
CC(C)(C)NS(=O)(=O)c1ccc(-c2sc(C(=O)NC3CCOCC3)nc2CC2CCCCC2)cc1C(F)(F)F [US10301272, Example 9]	0.0631
CC(C)(O)CNC(=O)c1nc(CC2CCC2)c(-c2ccc(S(=O)(=O)NC(C)(C)C)c(Cl)c2OC(F)F)s1 [US10301272, Example 21/1]	0.251
CCOC(=O)c1nc(Cc2ccccc2)c(-c2ccc(S(=O)(=O)NC(C)(C)C)c3ccccc23)s1 [US10301272, Example 202]	0.0631
